# Entries after “also recorded” stand apart in the source; their conditions may differ.
# Key:
# [1] = system: extracellular dopamine in the nucleus accumbens; assay: Microdialysis: Topiramate on cocaine-induced increases in nucleus accumbens dopamine; type: in vivo, rats; settings: Topiramate 40 mg/kg i.p. 60 minutes prior to cocaine challenge
# Experimental: In this example, we examined the effects of Topiramate sixty minutes prior to a cocaine challenge. The Topiramate was administered as an intraperitoneal injection, of 40 mg/kg, 60 minutes prior to a cocaine challenge.
# norepinephrine (NE) = assay: Microdialysis Example 15: extracellular norepinephrine after nicotine; type: in vivo
# Experimental: (§1) Briefly, two days prior to the microdialysis experiments, siliconized guide cannulae were implanted targeting the NAcc (A=+1.5 mm, L=−1.0 mm, V=−5.6 mm). […] Dialysate samples were assayed for monoamine content by microbore high-pressure liquid chromatography (HPLC) coupled with electrochemical detection. […] Peak effects were analyzed with a one-way ANOVA, and post-hoc Bonferroni t-test of topiramate pretreated groups compared to saline pretreated controls provided ANOVA significance at a critical value of 0.05.
# Sprague-Dawley rats = assay: Gross locomotor activity (Optical Animal Activity Monitor); type: in vivo; settings: for nicotine-induced increases in gross locomotor activity: topiramate 25 and 50 mg/kg
# Source text: Locomotor activity was monitored throughout the entire period of study using an Optical Animal Activity Monitor (Bioanalytical Systems, West Lafayette, Ind.), which uses an optical sensor and records activity on both a chart recorder and via computer.
# Locomotor data was collected with the Optical Animal Activity Monitor (OAAM, BAS, West Lafayette, Ind.). This system is attached to the microdialysis “Raturn®” machines and measures locomotor activity through an optical sensor attached directly to the animal. Output from the Raturn® gives a direct index of locomotor activity.
# [2] = system: mesolimbic extracellular dopamine (DA), NAcc; assay: Microdialysis Example 15: extracellular dopamine after nicotine; type: in vivo
# Experimental: as §1
# [3] = system: extracellular dopamine in the nucleus accumbens; assay: Microdialysis: Topiramate on nicotine-induced increases in nucleus accumbens dopamine (Example 14); type: in vivo, rats; settings: Rattus norvegicus, ip, 60 mins pretreatment
# Experimental: These studies were performed using the identical experimental technique we have successfully used in more than 5000 microdialysis studies in rats. Adult male Sprague-Dawley rats (200-300 g, Taconic Farms) were anesthetized with ketamine HCl/xylazine (100 mg/kg), and siliconized guide cannulae are stereotactically implanted in the NACC (1.5 mm anterior to bregma, 1 mm lateral to bregma, and 5.6 mm ventral from the cortical surface, Paxinos and Watson, 2nd edition, 1986) two days prior to the microdialysis experiment.
# On the day of the microdialysis study, rats are placed in a bowl at least 2 hrs prior to fraction collection. […]
# Ten minute samples are collected within the injection loop (50 μl), injected online and analyzed until three sequential injections differ by less than 10 percent. […]
# As stated previously, the first three data points that differ by less than 10% are used as the basal levels, and subsequent measurements made following a challenge drug are converted to a percentage of these values. All subsequent analyses are determined using the ‘percentage of basal’ values.
# Locomotor activity was monitored throughout the entire period of study using an Optical Animal Activity Monitor (Bioanalytical Systems, West Lafayette, Ind.), which uses an optical sensor and records activity on both a chart recorder and via computer. […]
# serotonin (5-HT) = assay: Microdialysis Example 15: extracellular serotonin after nicotine; type: in vivo
# Experimental: as §1
smiles,measurement,setting,value
CC1(C)O[C@@H]2[C@@H](CO[C@@]3(COS(N)(=O)=O)OC(C)(C)O[C@@H]23)O1 [Topiramate],attenuation of cocaine-induced increases in extracellular dopamine,[1],approximately 15%
same,inhibition at 25 mg/kg,"norepinephrine (NE); topiramate 25 mg/kg, read-out: inhibition of nicotine-induced increases in NE activity",53%
same,inhibition at 50 mg/kg,"norepinephrine (NE); topiramate 50 mg/kg, read-out: inhibition of nicotine-induced increases in NE activity",60%
same,extracellular basal NE concentrations,norepinephrine (NE); topiramate alone,did not produce any significant changes
same,"gross locomotor activity, topiramate alone",Sprague-Dawley rats; 25 and 50 mg/kg,did not alter gross locomotor activity; also recorded: did not attenuate gross locomotor activity
same,nicotine-induced increases in gross locomotor activity,Sprague-Dawley rats,significantly attenuate
same,nicotine-induced increases in gross locomotor activity,Sprague-Dawley rats; listed as topiramate,markedly attenuated
same,reduction of the NAcc DA response to acute nicotine,[2]; topiramate 25 mg/kg,67%
same,reduction of the NAcc DA response to acute nicotine,[2]; topiramate 50 mg/kg,83%
same,neurochemical sensitization (nicotine-induced NAcc DA release),"[2]; topiramate 75 mg/kg, animals pretreated with nicotine for 14 days",dramatically reduced
same,extracellular basal DA concentrations,[2]; topiramate alone,did not produce any significant changes
same,inhibition at 25 mg/kg,[3]; topiramate 25 mg/kg ip,~50%
same,inhibition at 50 mg/kg,[3]; topiramate 50 mg/kg ip,~70%
same,inhibition of nicotine-induced increases in 5-HT activity,serotonin (5-HT); topiramate 25 or 50 mg/kg,not
same,increase in basal 5-HT activity,"serotonin (5-HT); topiramate alone, non-significant",20%

# — patent US6890951B2, “Treatment of addiction and addiction-related behavior” (Brookhaven Science Associates LLC, priority 1998, dated 2005)
